Reference: patent US8808717B2, “Control of ectoparasites” (priority 2007, dated 2014)

Columns and labels:
[1] = test system: cabbage looper; settings: cited from earlier work
[2] = rat versus trout liver microsomes; cited from earlier work
[3] = test system: southern corn rootworm; settings: cited from earlier work
[4] = test system: tobacco budworm; settings: cited from earlier work
[5] = test system: Larval-stage lone star ticks (Amblyomma americanum); assay: Dip survival assay (larval immersion microassay) against A. americanum larvae; assay type: in vivo; settings: submerged 30 minutes, counted after 24 hours
Excerpt: Activity Against A. Americanum Larvae in a Dip Survival Assay
Using a previously-described protocol that can effectively predict compound potency against adult ticks in the field (White, W H. et al., An in vitro larval immersion microassay for identifying and characterizing candidate acaricides. J Med Entomol. 2004 November; 41(6):1034-42), test compounds from a dimethyl sulfoxide (DMSO) stock or 2% DMSO alone were dispensed into a round-bottom 96-well plate and mixed with aqueous buffer containing 1% ethanol and 0.2% Triton X100. […] Larval-stage lone star ticks (Amblyomma americanum) were dispensed into the wells containing test compounds and submerged for 30 minutes. The ticks were subsequently dispensed into a tissue biopsy bag, which is allowed to dry for 1 hour. After drying, the bags were incubated at 25° with 95% humidity for 24 hours and the number of live and dead larvae were counted.

[6] = test system: cotton aphids; settings: cited from earlier work
[7] = test system: mosquito larvae; settings: cited from earlier work
[8] = test system: fish, mammals; settings: fish versus mammals; cited from earlier work
[9] = test system: tobacco bud worm; settings: tobacco budworm; cited from earlier work
[10] = test system: ova from cat flea (Ctenocephalides felis); assay: Activity against C. felis ova (larval emergence in treated vials); assay type: in vivo
Excerpt: Activity Against C. Felis Ova
Evaluation of test compounds against flea ova is a commonly-used assay for the determination of commercial efficacy against these insect parasites (McTier T L et al., Evaluation of the effects of selamectin against adult and immature stages of fleas (Ctenocephalides felis felis) on dogs and cats. Vet Parasitol. 2000 Aug. 23; 91(3-4):201-12; Dryden M et al., Efficacy of a topically applied formulation of metaflumizone on cats against the adult cat flea, flea egg production and hatch, and adult flea emergence. Vet Parasitol. 2007 Dec. 15; 150(3):263-7). Compounds were dissolved in acetone and 100 μl of each solution was placed in 5 ml glass vials and allowed to air dry. Forty ova from cat flea (Ctenocephalides felis) that were less than 48 hours old as well as flea dirt (primarily adult flea fecal material and host dander) were placed in the vials. Vials were covered with paper towels to allow air exchange and incubated at 25° with 90% humidity for 5 days, and the number of larvae were counted.

In the case of `CC(C)(C)c1ccc(CCOc2ncnc3ccccc23)cc1` [Formula I, 4-tert-butylphenethyl quinazolin-4-yl ether], the LC50 [1] is given as 188 ppm, the “degradation by liver microsomes” value [2] is given as “degraded more extensively by rat liver microsomes than by trout liver microsomes” and the “activity (LC50)” value [3] is given as “greater than 400 ppm”. The “activity (LC50)” value [4] was “greater than 400 ppm”, the “Number of live/total tick larvae 24 hours after treatment” value ([5]; concentration 0.001%) was 23/80 and the “Number of live/total tick larvae 24 hours after treatment” value ([5]; concentration 0.01%) was 0/51. For the same compound, the “Number of live/total tick larvae 24 hours after treatment” value ([5]; concentration 0.05%) was 0/48, the LC50 [6] was 2.6 ppm and the LC50 [7] was 0.725 ppm. The toxicity [8] was “higher toxicity of the compound to fish than to mammals”, the metabolism [9] was “extensively metabolized” and the “Flea larvae emerging, percent of total eggs, from 40 ova after 5 days” value (from here on “Flea larvae emerging, percent”) ([10]; 10 μg per vial) was 10%. The “Number of flea larvae emerging from 40 ova after 5 days” value (“Number of flea larvae emerging” below) ([10]; 10 μg per vial) was 4, the “Flea larvae emerging, percent” value ([10]; 100 μg per vial) was 2.5% and the “Number of flea larvae emerging” value ([10]; 100 μg per vial) was 1. For the same compound, the “Flea larvae emerging, percent” value ([10]; 1 mg per vial) was 2.5% and the “Number of flea larvae emerging” value ([10]; 1 mg per vial) was 1.
For `CCc1nn(C)c(C(=O)NCc2ccc(C(C)(C)C)cc2)c1Cl` [Formula II, 4-chloro-5-ethyl-2-methyl-N-[(4-tert-butylphenyl)methyl]pyrazole-3-carboxamide], the “Number of live/total tick larvae 24 hours after treatment” value ([5]; concentration 0.001%) was 38/85, the “Number of live/total tick larvae 24 hours after treatment” value ([5]; concentration 0.01%) was 0/77 and the “Number of live/total tick larvae 24 hours after treatment” value ([5]; concentration 0.05%) was 0/69. For the same compound, the “Flea larvae emerging, percent” value ([10]; 10 μg per vial) was 17.5%, the “Number of flea larvae emerging” value ([10]; 10 μg per vial) was 7 and the “Flea larvae emerging, percent” value ([10]; 100 μg per vial) was 2.5%. The “Number of flea larvae emerging” value ([10]; 100 μg per vial) was 1, the “Flea larvae emerging, percent” value ([10]; 1 mg per vial) was 2.5% and the “Number of flea larvae emerging” value ([10]; 1 mg per vial) was 1.
In the case of `CCc1nn(C)c(C(=O)NCc2ccc(Oc3ccc(C)cc3)cc2)c1Cl` [Formula IV, 4-chloro-3-ethyl-1-methyl-N-[4-(p-tolyloxy)benzyl]pyrazole-5-carboxamide], the “Number of live/total tick larvae 24 hours after treatment” value ([5]; concentration 0.001%) is reported as 58/114, the “Number of live/total tick larvae 24 hours after treatment” value ([5]; concentration 0.01%) is reported as 0/79 and the “Number of live/total tick larvae 24 hours after treatment” value ([5]; concentration 0.05%) is reported as 0/76. For the same compound, the “Flea larvae emerging, percent” value ([10]; 10 μg per vial) was 15%, the “Number of flea larvae emerging” value ([10]; 10 μg per vial) was 6 and the “Flea larvae emerging, percent” value ([10]; 100 μg per vial) was 0 (0%). The “Number of flea larvae emerging” value ([10]; 100 μg per vial) was 0 (0%), the “Flea larvae emerging, percent” value ([10]; 1 mg per vial) was 0 (0% ) and the “Number of flea larvae emerging” value ([10]; 1 mg per vial) was 0 (0% ).
